Like-named read-outs stand apart in the source and are kept apart here.
Assays:
[1] = Stability of emulsion stored at 4° C. (change of particle size); type: physicochemical; set-up: key: Excellent: Particle size is hardly increased one month after the storage.; Good: The increase of the particle size is at most 50% or liquid-particle separation is observed one month after the storage; conditions: one month at 4° C., emulsion sterilized 100° C. 30 min
Method: (§1) According to the above preparation method of the emulsion, the emulsions of various perfluoroalkyl ether derivatives are prepared. Nine parts by volume of the resulting emulsion were diluted with 1 part by volume of an electrolyte solution of the following composition:
(§2) The emulsions were sterized by heating at 100° C. for 30 minutes in a nitrogen atmosphere. The emulsions were used for the following test.
The emulsions were stored at 4° C. and the stability was measured in terms of the change of the particle size by the following measures.
Good: The increase of the particle size is at most 50% or liquid-particle separation is observed one month after the storage.

[2] = Elimination property: half reduction term in the body of the rat; type: in vivo
Method: as §1, §2
This property was measured by the half reduction term in the body of the rat, and evaluated as follows: […]

[3] = Vapor pressure of the perfluorochemical; conditions: 38° C.
[4] = 37° C.; cited from earlier work
[5] = comparison between perfluorochemicals; cited from earlier work
wister male rats = test: Acute toxicity after intravenous injection of emulsion, observed by dissection (pulmonary emphysema); type: in vivo; conditions: i.v., rat, one week after injection
Method: as §1, §2
The emulsions which had been made physiologically isotonic were injected intravenously to the wister male rats of 100 to 200 g. One week after the injection acute toxicity was observed by dissection, and evaluation was effected according to the following measures.
Toxic: Occurrence of pulmonary emphysema. LD50 : 2-4 g/kg
Non toxicic: No occurence of pulmonary emphysema. LD50 : above 20 g/kg

SMILES	Stability of Emulsion [1]	elimination rate (in words) [5]	further results
FC(F)(F)C(F)(F)C(F)(F)OC(F)(F)C(F)(F)C(F)(F)C(F)(F)C(F)(F)C(F)(F)C(F)(F)F [Example 18, Perfluoro-1-n-propoxyheptane]	good	–	Elimination property [2]: poort; Vapor pressure [3]: 15-16 mmHg
FC(F)(F)C(F)(F)OC(C(F)(F)F)(C(F)(C(F)(F)F)C(F)(F)F)C(F)(C(F)(F)F)C(F)(F)F	excellent	–	–
FC(F)(F)C(F)(F)C(F)(F)OC(F)(C(F)(C(F)(F)F)C(F)(F)F)C(F)(C(F)(F)F)C(F)(F)F [drawing 62]	excellent	–	Elimination property [2]: fair
FC1(F)C(F)(F)C(F)(F)[C@]2(F)C(F)(F)C(F)(F)C(F)(F)C(F)(F)[C@]2(F)C1(F)F [perfluoro-cis-decalin]	–	slightly higher elimination rate than the trans isomer	Vapor pressure [4]: 10.1 mmHg
FC(F)(F)C(F)(F)C(F)(F)C(F)(F)C(F)(F)OC(F)(F)C(F)(F)C(F)(F)C(F)(F)C(F)(F)F [I]	–	IV>>III≥I >II	–
FC(F)(F)OC(F)(C(F)(F)F)C(F)(F)C(C(F)(F)F)(C(F)(F)C(F)(F)F)C(F)(F)C(F)(F)F (centres unmarked) [drawing 63]	good	–	–
FC1(F)C(F)(F)C(F)(F)[C@]2(F)C(F)(F)C(F)(F)C(F)(F)C(F)(F)[C@@]2(F)C1(F)F [trans isomer]	–	–	Vapor pressure [4]: 11.6 mmHg
FC1(F)C(F)(F)C(F)(F)C2(F)C(F)(F)C(F)(F)C(F)(F)C(F)(F)C2(F)C1(F)F (centres unmarked) [IV]	–	IV>>III≥I >II	–
FC(F)(F)C(F)(F)C(F)(F)C(F)(F)OC(C(F)(F)F)(C(F)(F)F)C(F)(F)C(F)(F)C(F)(F)F [drawing 61]	Excellent	–	Toxicity (wister male rats): Non tox- ic

Reference: patent US4943595A, “Perfluorochemicals and process for preparing the same” (The Green Cross Corporation, priority 1984, dated 1990)
